According to US8426202B2, “Cell culture medium” (Cellca GmbH, priority 2005, dated 2013):
Several values for one entry are separate records, joined by “and”; a condition that tells them apart may be missing. Equal entries are not always repeated. Where two headings read alike, the source gives them in different places.

Assays:
[1] = test system: CHO cell line that expresses an antibody; test: Batch experiment with the substances according to the invention (Example 1); assay type: cell-based, Chinese hamster; conditions: batch mode, substance 0.5-1 g/l, basal medium glucose 4.7 g/l, glutamine […]
[2] = test system: CHO cell line that expresses an antibody; test: Fed-batch experiment with the substances according to the invention (Example 2, Table 2); assay type: cell-based, Chinese hamster
From the text: Feed took place at regular intervals.

[3] = test system: CHO cell line that expresses an antibody; conditions: fed-batch; substance 1 g/l; supernatant, ELISA; absolute value of the control set at 100%
Experimental: A CHO cell line that expresses an antibody was used for the experiments. The product concentration (antibody concentration) in the cell supernatant was determined by ELISA.
From selected samples, the product concentration (antibody concentration) in the supernatant was determined by ELISA (Table 3)

[4] = test system: CHO cell line that expresses an antibody; conditions: fed-batch, glutamine-free basal and feed media, substance 0.5-1 g/l
From the text: (§1) A CHO cell line that expresses an antibody was used for the experiments.
This is a serum-free, protein-free nutrient medium. It is a ready-made, sterile-filtered nutrient medium.
After 1-4 days the cells were supplemented with a feed medium, i.e. the process was switched to fed-batch mode. Feed took place at regular intervals. In fed-batch experiments, a protein-free and serum-free feed medium from the company HyQ (R05.2 supplement, Cat. No.: SH30584.04, Lot No.: APF21457G) was used.
All substances (chemicals) used according to the invention were obtained from the company Sigma and stock solutions were prepared from them. From the stock solutions, the substances were put at the desired final concentration in culture tubes. The various culture tubes prepared in this way were finally inoculated with the antibody-producing CHO-clone at a target inoculation cell concentration (1-3×10^5/ml). For this, the corresponding amount of inoculum cells was calculated and the required amount of inoculum cell suspension was centrifuged. […] In this way the desired inoculation cell concentration was adjusted in the cell suspension being investigated. The cell suspension thus prepared was proportioned in the culture tubes, which were provided with the substances according to the invention beforehand. The culture tubes were incubated at 37° C., and 8% CO2 atmosphere, with shaking. The culture tubes were cultivated for 8-11 days in the batch mode or in the fed-batch mode. Samples for offline measurement of the variables were taken from the culture vessels at regular intervals, for example daily or on every third day. The metabolic variables and cell concentrations of the samples were measured. Cell concentration and cell vitality were measured with a CeDex instrument. The metabolic variables (glucose, lactate, glutamine and ammonium) were determined with an analyzer (BioProfile 100).
(§2) The following final concentrations of the substances according to the invention were established in a nutrient medium after inoculation:
The substances according to the invention were tested under fed-batch conditions. […] The feed medium used was from the company HyQ (R05.2 supplement, Cat. No.: SH30584.04, Lot No.: APF21457G). The feed medium was glutamine-free (Table 4).

[5] = test system: CHO cell line that expresses an antibody; conditions: fed-batch, basal medium 4 mM glutamine, feed with 3 g/l Ala-Gln and 3 g/l Gly-Gln, substance 0.5-1 g/l
Experimental: as §1
The experiments were carried out either in batch mode or in fed-batch mode. When the process was carried out in fed-batch mode, the process was first started in batch mode in the above-mentioned basal medium and cells were cultivated in this manner for 1-4 days. After 1-4 days the cells were supplemented with a feed medium, i.e. the process was switched to fed-batch mode. Feed took place at regular intervals. In fed-batch experiments, a protein-free and serum-free feed medium from the company HyQ (R05.2 supplement, Cat. No.: SH30584.04, Lot No.: APF21457G) was used.
From the stock solutions, the substances were put at the desired final concentration in culture tubes. The various culture tubes prepared in this way were finally inoculated with the antibody-producing CHO-clone at a target inoculation cell concentration (1-3×10^5/ml). For this, the corresponding amount of inoculum cells was calculated and the required amount of inoculum cell suspension was centrifuged. […] In this way the desired inoculation cell concentration was adjusted in the cell suspension being investigated. The cell suspension thus prepared was proportioned in the culture tubes, which were provided with the substances according to the invention beforehand. The culture tubes were incubated at 37° C., and 8% CO2 atmosphere, with shaking. The culture tubes were cultivated for 8-11 days in the batch mode or in the fed-batch mode. Samples for offline measurement of the variables were taken from the culture vessels at regular intervals, for example daily or on every third day. The metabolic variables and cell concentrations of the samples were measured. Cell concentration and cell vitality were measured with a CeDex instrument. The metabolic variables (glucose, lactate, glutamine and ammonium) were determined with an analyzer (BioProfile 100).
as §2
The substances according to the invention were tested under fed-batch conditions. […] The feed medium used was from the company HyQ (R05.2 supplement, Cat. No.: SH30584.04, Lot No.: APF21457G). 3 g/l alanyl-glutamine (Ala-Gin) and 3 g/l glycyl-glutamine (Gly-Gln) were added to the feed medium.

O=C([O-])CCC(=O)[O-].[Na+].[Na+] [Sodium succinate]
Gln ([1]; day 0): 1.53 mM | Glucose ([1]; day 0): 4.69 g/L | Lactate ([1]; day 0): 0 g/L | NH4 ([1]; day 0): 1.22 mM | Specific Glutamin consumption (Gln/VCD) ([1]; day 0): 1.49 | Specific ammonia production (NH4/VCD) ([1]; day 0): 1.18 | Specific glucose consumption (Gluc/VCD) ([1]; day 0): 4.55 | Specific lactate production (Lac/VCD) ([1]; day 0): 0.00 | Total Cell Density TCD ([1]; day 0): 1.07 E5/ml | Viabil. ([1]; day 0): 96% | Viable Cell Density (VCD) ([1]; day 0): 1.03 E5/ml | Gln ([1]; day 3): 0.76 mM | Glucose ([1]; day 3): 3.82 g/L | Lactate ([1]; day 3): 0.86 g/L | NH4 ([1]; day 3): 1.84 mM | Specific Glutamin consumption (Gln/VCD) ([1]; day 3): 0.09 | Specific ammonia production (NH4/VCD) ([1]; day 3): 0.22 | Specific glucose consumption (Gluc/VCD) ([1]; day 3): 0.47 | Specific lactate production (Lac/VCD) ([1]; day 3): 0.10 | Total Cell Density TCD ([1]; day 3): 8.3 E5/ml | Viabil. ([1]; day 3): 99% | Viable Cell Density (VCD) ([1]; day 3): 8.2 E5/ml | Gln ([1]; day 6): 0.31 mM | Glucose ([1]; day 6): 2.4 g/L | Lactate ([1]; day 6): 1.19 g/L | NH4 ([1]; day 6): 2.25 mM | Specific Glutamin consumption (Gln/VCD) ([1]; day 6): 0.01 | Specific ammonia production (NH4/VCD) ([1]; day 6): 0.05 | Specific glucose consumption (Gluc/VCD) ([1]; day 6): 0.05 | Specific lactate production (Lac/VCD) ([1]; day 6): 0.02 | Total Cell Density TCD ([1]; day 6): 49.1 E5/ml | Viabil. ([1]; day 6): 98% | Viable Cell Density (VCD) ([1]; day 6): 48.1 E5/ml | Gln ([1]; day 8): 0.36 mM | Glucose ([1]; day 8): 1.44 g/L | Lactate ([1]; day 8): 1.14 g/L | NH4 ([1]; day 8): 2.33 mM | Specific Glutamin consumption (Gln/VCD) ([1]; day 8): 0.01 | Specific ammonia production (NH4/VCD) ([1]; day 8): 0.09 | Specific glucose consumption (Gluc/VCD) ([1]; day 8): 0.06 | Specific lactate production (Lac/VCD) ([1]; day 8): 0.04 | Total Cell Density TCD ([1]; day 8): 29.8 E5/ml | Viabil. ([1]; day 8): 86% | Viable Cell Density (VCD) ([1]; day 8): 25.6 E5/ml | Gln ([1]; day 11): 0.52 mM | Glucose ([1]; day 11): 0.22 g/L | Lactate ([1]; day 11): 1.59 g/L | NH4 ([1]; day 11): 3 mM | Specific Glutamin consumption (Gln/VCD) ([1]; day 11): 0.03 | Specific ammonia production (NH4/VCD) ([1]; day 11): 0.18 | Specific glucose consumption (Gluc/VCD) ([1]; day 11): 0.01 | Specific lactate production (Lac/VCD) ([1]; day 11): 0.10 | Total Cell Density TCD ([1]; day 11): 32.8 E5/ml | Viabil. ([1]; day 11): 50% | Viable Cell Density (VCD) ([1]; day 11): 16.3 E5/ml | Total Cell Density TCD ([2]; day 0, fed-batch): 1.5 E5/ml | Viabil. ([2]; day 0, fed-batch): 91% | Viable Cell Density (VCD) ([2]; day 0, fed-batch): 1.37 E5/ml | Total Cell Density TCD ([2]; day 2, fed-batch): 4.2 E5/ml and 4.4 E5/ml | Viabil. ([2]; day 2, fed-batch): 98% | Viable Cell Density (VCD) ([2]; day 2, fed-batch): 4.1 E5/ml and 4.3 E5/ml | Total Cell Density TCD ([2]; day 5, fed-batch): 18.1 E5/ml | Viabil. ([2]; day 5, fed-batch): 97% | Viable Cell Density (VCD) ([2]; day 5, fed-batch): 17.5 E5/ml | Total Cell Density TCD ([2]; day 8, fed-batch): 62.2 E5/ml and 64.1 E5/ml | Viabil. ([2]; day 8, fed-batch): 90% and 92% | Viable Cell Density (VCD) ([2]; day 8, fed-batch): 55.7 E5/ml and 58.8 E5/ml | Antibody concentration [3]: 127% | Sp. Gluc cons. ([4]; day 0): 95 | Sp. NH4 prod ([4]; day 0): 98 % of control | TCD ([4]; day 0): 100 % of control | VCD ([4]; day 0): 100 % of control | Viabil. ([4]; day 0): 94% | Sp. Gluc cons. ([4]; day 3): 74 | Sp. Lactate prod. ([4]; day 3): 75 % of control | Sp. NH4 prod ([4]; day 3): 72 % of control | TCD ([4]; day 3): 124 % of control | VCD ([4]; day 3): 132 % of control | Viabil. ([4]; day 3): 95% | Sp. Gluc cons. ([4]; day 5): 88 | Sp. Lactate prod. ([4]; day 5): 93 % of control | Sp. NH4 prod ([4]; day 5): 90 % of control | TCD ([4]; day 5): 108 % of control | VCD ([4]; day 5): 111 % of control | Viabil. ([4]; day 5): 95% | Sp. Gluc cons. ([4]; day 7): 78 | Sp. Lactate prod. ([4]; day 7): 89 % of control | Sp. NH4 prod ([4]; day 7): 85 % of control | TCD ([4]; day 7): 118 % of control | VCD ([4]; day 7): 117 % of control | Viabil. ([4]; day 7): 87% | Sp. Gluc cons. ([4]; day 9): 69 | Sp. Lactate prod. ([4]; day 9): 78 % of control | Sp. NH4 prod ([4]; day 9): 74 % of control | TCD ([4]; day 9): 134 % of control | VCD ([4]; day 9): 136 % of control | Viabil. ([4]; day 9): 94% | Total Cell Density TCD ([5]; day 0): 1.1 E5/ml | Viabil. ([5]; day 0): 96% | Viable Cell Density (VCD) ([5]; day 0): 1.0 E5/ml | Total Cell Density TCD ([5]; day 3): 9.3 E5/ml | Viabil. ([5]; day 3): 95% | Viable Cell Density (VCD) ([5]; day 3): 8.8 E5/ml | Total Cell Density TCD ([5]; day 5): 56.7 E5/ml | Viabil. ([5]; day 5): 96% | Viable Cell Density (VCD) ([5]; day 5): 54.3 E5/ml | Total Cell Density TCD ([5]; day 7): 42.0 E5/ml | Viabil. ([5]; day 7): 82% | Viable Cell Density (VCD) ([5]; day 7): 34.5 E5/ml | Total Cell Density TCD ([5]; day 9): 35.9 E5/ml | Viabil. ([5]; day 9): 74% | Viable Cell Density (VCD) ([5]; day 9): 26.7 E5/ml
